# Assay results taken from patent US12559776B2, “Chemical and biological integrated degradation process for polyethylene terephthalate (PET), for recycling pet” (Korea University Research and Business Foundation, priority 2021, dated 2026).
# B1: /sPETase^Wild: wild-type PETase of I. sakaiensis, SEQ ID NO: 3 (protein)
# chain: HMQTNPYARGPNPTAASLEASAGPFTVRSFTVSRPSGYGAGTVYYPTNAGGTVGAIAIVPGYTARQSSIKWWGPRLASHGFVVITIDTNSTLDQPSSRSSQQMAALRQVASLNGTSSSPIYGKVDTARMGVMGWSMGGGGSLISAANNPSLKAAAPQAPWDSSTNFSSVTVPTLIFACENDSIAPVNSSALPIYDSMSRNAKQFLEINGGSHSCANSGNSNQALIGKKGVAWMKRFMDNDTRYSTFACENPNSTRVSDFRTANCSLE
# modifications: IsMHETase_wt
# Columns and labels:
# [1] = pH of 50 mM sodium phosphate buffer after adding TPA; type: physicochemical; conditions: TPA 4 g/L in 50 mM sodium phosphate buffer (pH 8)
# Procedure: Based on the defined enzyme input amounts, a hydrolase reaction was performed using the product of PET glycolysis, in which betaine was used, as a substrate. Accordingly, the efficient input amounts of the IsPETase^Mut and IsMHETase^Mut enzymes relative to substrates were to be confirmed without wasting the enzymes. The reaction conditions included a PET glycolysis product including 10 g/L of BHET as a substrate, 50 mM sodium phosphate buffer (pH 8), and a volume of 500 μL. After the reaction was performed at 40° C. for 6 hours, 30 min, 1 hr, 3 hr, and 6 hr, samples were diluted in methanol and centrifuged at 25,188 g for 10 minutes, and followed by analyzing the supernatant through high performance liquid chromatography (HPLC). As a result, in FIG. 6c, when the enzyme input amounts are 2.3 U/L and 4.5 U/L, compared to 9.0 U/L, it was confirmed that the amount of the product TPA is low. As the reaction progressed, it was expected that the pH was lowered and the enzyme activity was lost due to the influence of the product TPA. First, to confirm how low the pH is under the enzymatic hydrolysis reaction conditions due to the influence of TPA, TPA was added at a concentration of 0 to 10 g/L under the condition of 50 mM sodium phosphate buffer (pH 8). As a result, in FIG. 6d, the pHs of all samples were measured with a pH meter and visually confirmed with pH paper. […]
# [2] = PET glycolysis in EG with catalyst (microwave); conditions: 190 °C
# Procedure: To establish an economical and efficient PET upcycling process, a chemical PET depolymerization process is required. […] A conventional PET glycolysis method mainly used a heavy metal catalyst. The use of a metal catalyst may have an adverse effect on the biological process of the integrated process and have adverse environmental effects, so glycolysis was performed in a microwave digestion system using betaine instead of a metal catalyst. Specifically, 3.5 to 11.5 g of granular PET and a specific amount of EG were reacted using betaine as a catalyst at 190° C. for 30 to 120 minutes. To maintain the reaction conditions, a microwave digester (Milestone, Shelton, CT) with a thermocouple and magnetic stirrer function was used, and the reaction was performed in a 100 mL reaction vessel for exclusive use of a microwave digester.
# To determine the glycolysis effect of betaine, first, the input amount of a substrate was optimized. Glycolysis was performed at 190° C. for 30 minutes by adding 0.5% (catalyst/PET, w/w ratio) betaine to a PET substrate and an EG solvent at a molar ratio (PET:EG) of 1:3, 1:4, 1:5, 1:6, 1:10, or 1:20. Here, the major product BHET and a by-product MHET were produced. The BHET and MHET concentrations were measured by liquid chromatography. As a result, it was confirmed that the highest yield was obtained under a substrate input condition corresponding to a PET:EG molar ratio of 1:5. However, considering the concentration of the final product, it was confirmed that the yield was even higher under the substrate input condition corresponding to the PET:EG molar ratio of 1:4. […] Accordingly, the substrate input condition corresponding to a PET:EG molar ratio of 1:4 was selected, and further conditions were established (Table 2).
# To confirm the catalytic effect on the input amount of betaine, betaine corresponding to 0, 0.1, 0.5, 1% (catalyst/PET, w/w ratio) was added, and glycolysis was performed at 190° C. for 30 minutes. As a result, it was confirmed that the condition of adding betaine corresponding to 0.5% (catalyst/PET, w/w ratio) is optimal. Accordingly, this condition was selected, and further conditions were established (Table 2)
# Next, to confirm the effect by glycolysis reaction time, the reaction was performed at 190° C. under various reaction time conditions of 30, 60, 90, and 120 minutes. As a result, it was confirmed that 60 minutes is the optimal condition. […] Afterward, in a biological process, the PET glycolysis product that had been produced under the above conditions was used as a substrate (Table 2). […]
# To analyze a PET glycolysis product using betaine as a catalyst, high performance liquid chromatography (HPLC) analysis was performed. HPLC analysis conditions are as follows. As a column, a C18 column (OpitmaPak C18-51001546, 5 μm, 150 mm×4.6 mm) was used, and a column temperature was maintained at 25° C. during the analysis. Two mobile phases, A and B, were used, wherein A is 0.1% trifluoroacetic acid in distilled water, and B is methanol. During the analysis at a flow rate of 1 mL/min for 27 minutes, the proportion of the mobile phase B was maintained at 5% at 0 to 2 minutes, and the proportion of the mobile phase B was changed from 5 to 57% at 2 to 18 minutes. At 18 to 22 minutes, the proportion of the mobile phase B was changed from 57 to 5%. Finally, at 22 to 27 minutes, the proportion of the mobile phase B was maintained at 5%. Chromatography was performed at a wavelength of 254 nm using a UV/Vis detector.
# IsPETase^Mut = biological target: T1, IsPETase^Mut (Piscinibacter sakaiensis, UniProt A0A0K8P6T7, D186H/R280A/S121E); assay: Inhibitory effect of catalysts on IsPETase^Mut enzyme reaction; type: biochemical, Ideonella sakaiensis; conditions: 1 mM; enzyme 2.3 U/L; substrate BHET; 50 mM sodium phosphate buffer (pH 8); 40 °C, 15 minutes
# T1 construct: His tag (pET28a vector) (N); made in house; host or cells: E. coli BL21(DE3)
# T1 sequence (A0A0K8P6T7 other isoform, or with tags, fused parts or gaps S121E/D186H/R280A): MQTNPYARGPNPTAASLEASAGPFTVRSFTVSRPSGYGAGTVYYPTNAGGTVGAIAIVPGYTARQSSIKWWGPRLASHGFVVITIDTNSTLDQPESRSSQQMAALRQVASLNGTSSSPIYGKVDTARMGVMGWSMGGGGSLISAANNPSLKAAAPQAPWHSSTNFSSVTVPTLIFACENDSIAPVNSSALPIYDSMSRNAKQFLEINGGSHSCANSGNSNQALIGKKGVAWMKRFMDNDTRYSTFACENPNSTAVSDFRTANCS
# Procedure: (§1) To confirm whether the metal catalysts used in conventional PET glycolysis and betaine, which is an eco-friendly catalyst selected in this study, can have inhibitory effects on enzymatic hydrolysis, IsPETase^Mut and IsMHETase^Mut enzyme experiments were performed using 1 mM each of betaine, Ca^2+, Co^2+, Cu^2+, Fe^2+, Mg^2+, Mn^2+, Ni^2+, pb^2+, Zn^2+, and Li^+. The experiments were performed under conditions including an enzyme concentration of 2.3 U/L, 2.5 mg each of the substrates BHET and MHET, 50 mM sodium phosphate buffer (pH 8), and a volume of 500 μL. After performing the reaction at 40° C. for 15 minutes, all samples were diluted in methanol and centrifuged at 25,188 g for 10 minutes, followed by analyzing the supernatant through high performance liquid chromatography (HPLC). […] Therefore, the product of PET glycolysis using betaine may be used in enzymatic hydrolysis.
# IsMHETase^Mut = biological target: T2, IsMHETase^Mut (Piscinibacter sakaiensis, UniProt A0A0K8P8E7, W397A); assay: Inhibitory effect of catalysts on IsMHETase^Mut enzyme reaction; type: biochemical, Ideonella sakaiensis; conditions: 1 mM; enzyme 2.3 U/L; substrate MHET; 50 mM sodium phosphate buffer (pH 8); 40 °C, 15 minutes
# T2 construct: His tag (pET28a vector) (N); made in house; host or cells: E. coli BL21(DE3)
# T2 sequence (A0A0K8P8E7 other isoform, or with tags, fused parts or gaps W397A): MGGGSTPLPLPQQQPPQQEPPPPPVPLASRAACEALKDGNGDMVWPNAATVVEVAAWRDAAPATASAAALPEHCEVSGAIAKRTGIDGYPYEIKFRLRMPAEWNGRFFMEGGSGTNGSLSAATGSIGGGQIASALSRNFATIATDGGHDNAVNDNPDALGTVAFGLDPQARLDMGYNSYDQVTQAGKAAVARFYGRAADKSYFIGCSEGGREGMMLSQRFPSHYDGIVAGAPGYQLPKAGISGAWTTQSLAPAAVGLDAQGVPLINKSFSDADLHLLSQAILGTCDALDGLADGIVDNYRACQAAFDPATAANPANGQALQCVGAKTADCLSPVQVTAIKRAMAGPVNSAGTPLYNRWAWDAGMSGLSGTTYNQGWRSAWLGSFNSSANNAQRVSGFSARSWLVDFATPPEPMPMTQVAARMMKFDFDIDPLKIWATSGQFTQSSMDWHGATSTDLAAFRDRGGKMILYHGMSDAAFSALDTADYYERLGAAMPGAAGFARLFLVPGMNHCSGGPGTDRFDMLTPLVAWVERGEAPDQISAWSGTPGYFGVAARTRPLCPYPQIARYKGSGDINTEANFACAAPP
# Procedure: as §1
# [3] = PET film; pH 7.0; 30 °C; 18 h; Yoshida et al.; cited from earlier work
# [4] = PET/EG 1:4, catalyst/PET 0.5 wt %, 60 min
# [5] = PET/EG 1:3, catalyst/PET 0.5 wt %, 30 min
# [6] = PET/EG 1:4, catalyst/PET 0.1 wt %, 30 min
# [7] = PET/EG 1:4, catalyst/PET 0.5 wt %, 30 min
# [8] = PET/EG 1:4, catalyst/PET 0.5 wt %, 90 min
# [9] = PET/EG 1:4, catalyst/PET 0.5 wt %, 120 min
# [10] = PET/EG 1:4, catalyst/PET 1 wt %, 30 min
# [11] = PET/EG 1:5, catalyst/PET 0.5 wt %, 30 min
# [12] = PET/EG 1:6, catalyst/PET 0.5 wt %, 30 min
# [13] = PET/EG 1:10, catalyst/PET 0.5 wt %, 30 min
# [14] = PET/EG 1:20, catalyst/PET 0.5 wt %, 30 min
molecule,measurement,setting,value
"O=C(O)c1ccc(C(=O)O)cc1 [TPA, terephthalic acid]",pH,[1],5.47
"C1CN=C2NCCCN2C1 [TBD, 1,5,7-triazabicyclo[4.4.0]dec-5-ene, reference compound]",collective yield of BHET and MHET,[2]; [4],55.1%
same,titer of BHET,[2]; [4],328.4 g/L
same,titer of MHET,[2]; [4],45.9 g/L
C[N+](C)(C)CC(=O)O [betaine],inhibitory effect on IsPETase^Mut enzyme reaction,IsPETase^Mut,no inhibitory effect
same,inhibitory effect on IsMHETase^Mut enzyme reaction,IsMHETase^Mut,no inhibitory effect
same,collective yield of BHET and MHET,[2]; [5],34.6%
same,titer of BHET,[2]; [5],256.8 g/L
same,titer of MHET,[2]; [5],24.9 g/L
same,collective yield of BHET and MHET,[2]; [6],26.6%
same,titer of BHET,[2]; [6],185.3 g/L
same,collective yield of BHET and MHET,[2]; [7],52.3%
same,titer of BHET,[2]; [7],330.6 g/L
same,titer of MHET,[2]; [7],27.6 g/L
same,collective yield of BHET and MHET,[2]; [4],58.7%
same,titer of BHET,[2]; [4],368.6 g/L
same,titer of MHET,[2]; [4],32.8 g/L
same,collective yield of BHET and MHET,[2]; [8],55.1%
same,titer of BHET,[2]; [8],341.2 g/L
same,titer of MHET,[2]; [8],35.1 g/L
same,collective yield of BHET and MHET,[2]; [9],53.8%
same,titer of BHET,[2]; [9],313.8 g/L
same,titer of MHET,[2]; [9],50.4 g/L
same,collective yield of BHET and MHET,[2]; [10],42.4%
same,titer of BHET,[2]; [10],286.9 g/L
same,titer of MHET,[2]; [10],6.8 g/L
same,collective yield of BHET and MHET,[2]; [11],52.7%
same,titer of BHET,[2]; [11],307.6 g/L
same,titer of MHET,[2]; [11],21.6 g/L
same,collective yield of BHET and MHET,[2]; [12],51.6%
same,titer of BHET,[2]; [12],268.3 g/L
same,titer of MHET,[2]; [12],19.1 g/L
same,collective yield of BHET and MHET,[2]; [13],49.8%
same,titer of BHET,[2]; [13],189.8 g/L
same,titer of MHET,[2]; [13],6.7 g/L
same,collective yield of BHET and MHET,[2]; [14],37.2%
same,titer of BHET,[2]; [14],81.3 g/L
same,titer of MHET,[2]; [14],2.9 g/L
B1,"sum of TPA, MHET and BHET",[3],(0.3 mM
